Entries after “also recorded” stand apart in the source; their conditions may differ.
How the values were obtained:
[1] = tested on: E16.5 embryonic back skin (Abca12 Lx12/Lx12 and Lx12/+); experiment: Harlequin Ichthyosis ex vivo embryo whole mount skin assay, cornified envelope thickening; type: cell-based, mouse; conditions: 10 mM Mesalamine or 1 uM Acitretin, 4 days ex vivo
Experimental: Embryonic back skin was collected at E16.5 from across 3 litters generated by Abca12 Lx12/+ cross Abca12 Lx12/+ matings to generate Harlequin Ichthyosis embryos Abca12 Lx12/Lx12 and control siblings Abca12 Lx12/+ and Abca12+/+. The embryonic skin was then cultured 4 days on a porous membrane chamber insert with the epidermis exposed to air and dermis side in contact with media drawn through the porous membrane to permit maturation and adaptation to air. 10 mM Mesalamine or 1 uM Acitretin was supplied in the culture media and media refreshed at 48 hrs. Vehicle samples were left without drug treatment. Skins were then harvested on the 4th day and fixed in 4% PFA for 3-4 hrs then stored in 80% Ethanol until processed and embedded in paraffin wax. 8 micron sections were then cut and stained with Haematoxylin and Eosin and analysed. The percentage of skin thickness accounted for by the cornified envelope (cornified layer) was measured and results normalised as a fold change over the vehicle-treated control siblings in each assay. Wild type siblings were under represented in these litters so phenotypically normal heterozygote siblings were used as controls.

[2] = tested on: naturally parakeratotic tail scale skin; experiment: Ex vivo mouse tail scale assay; type: cell-based; conditions: 4 days ex vivo
Experimental: 7-9 week old wild type mice of either gender were sacrificed and the tail skin tissue harvested then cultured 4 days on a porous membrane chamber insert with the epidermis exposed to air and dermis side in contact with media drawn through the porous membrane. Various concentrations and combinations of Mesalamine (2 mM and 5 mM) and Acitretin (1 μM) were added to the media or media alone used as a control. Media was refreshed after 48 hrs. Skins were then harvested on the 4 th day and fixed in 4% PFA overnight then stored in 80% Ethanol until processed and embedded in paraffin wax. 8 micron sections were then cut and stained with Haematoxylin and Eosin and analysed. Images were taken from at least 10 scales from 3 mice per treatment condition and the % orthokeratosis measured as defined in the figure legend for FIG. 13.

[3] = tested on: E16.5 embryonic mouse dorsal skin (Lx12/Lx12 HI mutant, Lx12/+, +/+); experiment: Ex vivo chamber assay of E16.5 embryonic mouse dorsal skin during Harlequin Ichthyosis (HI) disease acquisition, H&E and immunofluorescent staining; type: cell-based
Source text: The mouse strain ‘Abca12^tm1Lex’ NIH-0129 was obtained from Lexicon genetics and are referred to herein as Abca12Lx12/Lx12, or simply Lx12/Lx12, mice. These mice have a puromycin selection cassette-mediated exon 8 disruption and recapitulate the features of HI akin to other Abca12 mutant strains. All animal procedures complied with standards set under Australian guidelines for animal welfare and experiments were subject to Monash University animal welfare ethics review panels.
Anti-cleaved caspase 3 (#9664P) 1:100 (IHC) Cell Signalling Technologies, USA. Anti-filaggrin (PRB-417P) 1: 1000 (IHC) Covance, USA. Anti-involucrin (PRB-140C) 1: 1000 (IHC) Covance, USA. Antikeratin 10 (PRB-159P) 1: 500 (IHC) Covance, USA. Antikeratin 10 (sc-23877) 1: 100 (IHC) Santa Cruz Biotechnology USA. Anti-keratin 14 (LL002) (ab7800) 1: 250-1000 (IHC) Abcam, UK. Anti-loricrin (PRB-145P) 1: 1000 (IHC) Covance, USA. Molecular Probes AlexaFluor A488 and 555 secondary antibodies raised in Donkey, against rabbit or mouse, were used at 1: 600, from Life Technologies. Nuclei stains used included DAPI (Sigma-Aldrich) 1: 1000. DAB staining was performed by the Monash Histology Platform using Leica autostainers and Dako products.
The ability of mesalamine to rescue the impaired differentiation in an HI mouse model, which represents an extremely severe inflammatory skin disease, was tested. Embryonic back skins at E16.5 were harvested from a litter containing wild type, heterozygous and HI embryos. The skin was divided into two pieces and each cultured for 4 days in a standard ex vivo chamber assay, where the skin rests dermis-side down on a chamber insert membrane and draws cell culture media up from the below well, forming an air face on the epidermis side and liquid face for the dermal side, similar to the normal skin environment. Mesalamine was added in the media of one of each pair of skins at 10 mM (the active concentration determined to have most impact in the gut for intestinal diseases).

[4] = tested on: E18.5 embryonic mouse dorsal skin (Lx12/Lx12 HI mutant, Lx12/+, +/+); experiment: Ex vivo chamber assay of E18.5 embryonic mouse dorsal skin after HI disease acquisition, H&E; type: cell-based; conditions: 4 days ex vivo
Experimental: Representative Haematoxylin and Eosin staining of embryonic mouse dorsal skin from two E18.5 litters, cultured ex vivo for 4 days on chamber inserts, with 1 or 10 mM mesalamine in standard culture media or vehicle alone is shown in FIG. 9. +/+ presents wild type skin. Lx12/Lx12 represents the HI mutant skin and Lx12/+ represents seemingly normal skin carrying the recessive HI mutant allele. Note once again the abnormality observed in the spinous layer, loss of the granular layer and proportional thickening of the stratum corneum in Lx12/Lx12 (HI) vehicle treated skins. Lx12/+ skins also appeared slightly abnormal relative to +/+ vehicle treated skins. […] Images are repeated in grayscale.

[5] = tested on: E16.5 embryonic mouse dorsal skin (Lx12/Lx12 HI mutant, Lx12/+, +/+); experiment: Ex vivo chamber assay of E16.5 embryonic mouse dorsal skin during Harlequin Ichthyosis (HI) disease acquisition, H&E and immunofluorescent staining; type: cell-based; conditions: second E16.5 litter, 1 or 10 mM, 4 days ex vivo
GRHL3 −/− epidermis = experiment: Ex vivo whole mount assay of GRHL3 -/- skin (proxy model of Lamellar Ichthyosis), cornified layer thickness; type: cell-based, mouse; conditions: E16.5, 10 mM, 4 days ex vivo
Experimental: Embryonic back skin was collected at E16.5 from litters generated by GRHL3+/− cross Abca12 GRHL3+/− matings to generate Ichthyosis embryos GRHL3 −/− and control siblings GRHL3+/− and GRHL3+/+. The embryonic skin was then cultured 4 days on a porous membrane chamber insert with the epidermis exposed to air and dermis side in contact with media drawn through the porous membrane to permit maturation and adaptation to air. Skins were then harvested and fixed in 4% PFA for 3-4 hrs then stored in 80% Ethanol until processed and embedded in paraffin wax. 8 micron sections were then cut and stained with Haematoxylin and Eosin and analysed.

[6] = Harlequin Ichthyosis (Lx12/Lx12) skins
[7] = control heterozygous Lx12/+ skins
[8] = Lx12/+ skin, 10 mM, 4 days ex vivo
[9] = Lx12/Lx12 skin, 10 mM, 4 days ex vivo

Row | SMILES | Cornified layer proportion of skin thickness [1, 6] | Cornified layer proportion of skin thickness [1, 7] | Orthokeratosis ([2]; 1 μM Acitretin) | Skin differentiation defects in HI ([3]; 10 mM in media, pair matched skins across genotypes) | Epidermis morphology (Haematoxylin and Eosin) ([3]; +/+ wild type skin, 10 mM, 4 days ex vivo) | Apoptosis (cleaved-Caspase-3 positive cells) ([3]; Lx12/+ and Lx12/Lx12 skin, 10 mM, 4 days ex vivo) | Granular layer Filaggrin (FLG) [3, 8] | Keratin 10 (K10) positive keratinocytes [3, 8] | Epidermis morphology (Haematoxylin and Eosin) ([3]; Lx12/Lx12 (HI) skin, 10 mM, 4 days ex vivo) | Granular layer Filaggrin (FLG) [3, 9] | Involucrin (INV) expression [3, 9] | Keratin 10 (K10) positive keratinocytes [3, 9] | Loricrin (LOR) expression [3, 9] | Epidermis morphology (Haematoxylin and Eosin) ([4]; Lx12/Lx12 (HI) skin, E18.5, 1 mM) | Epidermis morphology (Haematoxylin and Eosin) ([4]; all genotypes, E18.5, 10 mM) | Epidermis morphology (Haematoxylin and Eosin) [5] | Cornified layer thickening (GRHL3 −/− epidermis) | Orthokeratosis compared with 1 μM Acitretin ([2]; 2 mM Mesalamine) | Orthokeratosis ([2]; 2 mM and 5 mM Mesalamine in the culture medium)
1 | COc1cc(C)c(/C=C/C(C)=C/C=C/C(C)=C/C(=O)O)c(C)c1C [Acitretin] | no significant effect | no significant effect | promoted orthokeratosis |  |  |  |  |  |  |  |  |  |  |  |  |  |  |  | 
2 | Nc1ccc(O)c(C(=O)O)c1 [Mesalamine, 5-aminosalicylic acid] | reduced the cornified layer proportion to vehicle control levels | reduced the thickness |  | significantly rescued | did not however appear to greatly effect | apoptosis is reduced | restored | revert to normal levels | acquires a more-normal appearance | partially restored | a more organised, and delayed (granular layer) expression | some modest improvement | a more normal, predominantly granular layer expression | acquires a more-normal appearance | reducing the keratinocytes accumulating in the spinous layers | acquires a more-normal appearance | reduced hyper-thickening of the cornified layer; also recorded: loss of thickening | performing similarly to 1 μM Acitretin | dose dependent increase in orthokeratosis

— patent US20180263940A1, “TREATMENT OF SKIN CONDITIONS” (priority 2015, published 2018)
